pKi: −log10 of the molar value. Like-named read-outs stand apart in the source and are kept apart here. Blank lines part the entries; values can stand above or below the compound they belong to.
What was measured:
[1] = target: glycine binding site (Rattus norvegicus, UniProt P35439); test: affinity for the glycine binding site / glycine/NMDA receptor (Ki; method not stated)
Description: (§1) The binding affinities of quinoxaline-2,3-diones at NMDA receptor glycine sites also were estimated by electrophysiological assays with either cloned rat NMDA receptors expressed in Xenopus oocytes, or non-NMDA receptors expressed in oocytes by whole rat brain poly(A)^+ RNA. […] For NMDA receptors Ki values were approximated by averaging values at three subtype combinations (NR1A/NR2A, NR1A/NR2B, and NR1A/NR2C).

[2] = target: NMDA receptor glycine sites; test: electrophysiological assay, cloned rat NMDA receptors expressed in Xenopus oocytes; format: cell-based; details: Table II; from electrophysiology using Xenopus oocytes
Description: as §1

[3] = tested on: mice; test: anticonvulsant activity in maximum electroshock seizure (MES) experiments in mice; format: in vivo, male Swiss/Webster mice; details: for ED50 / ED100: Mus musculus; for ED50: read-out: ED50 (MES); for ED50 as an anticonvulsant in the MES experiment in mice: route not stated
Description: The seizure stimulus parameters were: 50 mA, 60 Hz, rectangular pulse, width 0.8 msec, duration 200 msec. Tonic hind limb extension observed after application of the electrical stimulus was recorded as occurrence of seizure. The drug was applied i.v. as an aqueous Tris (Tromethamine) solution.

[4] = tested on: glycine binding site of the NMDA receptor; details: literature, cited from earlier work

Structure (SMILES): Cc1cc(C)c2[nH]c(=O)c(=O)[nH]c2c1 [Me H Me H, 5,7-Dimethyl-1,4-dihydro-2,3-quinoxalinedione]
pKi [2]: 5.77

Structure (SMILES): Cc1cc2[nH]c(=O)c(=O)n(CC(=O)O)c2cc1C [Example 4a]
glycine site antagonism or affinity (words) [4]: functional antagonism

Structure (SMILES): O=c1[nH]c2cc(Cl)cc(C(F)(F)F)c2[nH]c1=O [CF3 H Cl H]
pKi ([1]; Table IV, read-out: Ki): 6.40 | ED100 ([3]; Table IV, i.v.): 30 mg/kg | ED50 ([3]; Table IV, i.v.): 10 mg/kg | IV peak of action ([3]; Table IV, i.v.): 30 min | % protection after 60 min. ([3]; i.v., 30 mg/kg): 87%

Structure (SMILES): [N-]=[N+]=Nc1c(Cl)cc2[nH]c(=O)c(=O)[nH]c2c1Cl [Cl N3 Cl H, 6-azido-5,7-dichloro-1,4-dihydroquinoxaline-2,3-dione]
pKi [2]: 6.27

Structure (SMILES): N#Cc1c(Cl)c(Cl)cc2[nH]c(=O)c(=O)[nH]c12 [CN Cl Cl H, 5-Cyano-6,7-dichloro-1,4-dihydroquinoxaline-2,3-dione]
pKi [2]: 7.82

Structure (SMILES): O=c1[nH]c2cc(Cl)c(Cl)c([N+](=O)[O-])c2[nH]c1=O [6,7-dichloro-5-nitro-1,4-dihydroquinoxaline-2,3-dione, reference compound]
ED50 (MES) ([3]; Table IV, i.v.): 4 to 5 mg/kg | ED100 (MES) ([3]; Table IV, i.v.): 7 to 10 mg/kg | IV peak of action ([3]; Table IV, i.v.): 5 min | % protection after 60 min. ([3]; i.v., 10 mg/kg): 55% | ED50 as an anticonvulsant in the MES experiment in mice [3]: 4 to 5 mg/kg

Structure (SMILES): Cc1c(F)cc2[nH]c(=O)c(=O)[nH]c2c1[N+](=O)[O-] [NO2 Me F H, 7-Fluoro-6-methyl-5-nitro-1,4-dihydro-2,3-quinoxalinedione]
pKi [2]: 7.28 | pKi [1]: 7.28 | ED50 (MES) ([3]; Table III, i.v. injection): 2 mg/kg | ED50 as an anticonvulsant in the MES experiment in mice [3]: 2 mg/kg

Structure (SMILES): O=c1[nH]c2cc(C(F)(F)F)cc(Cl)c2[nH]c1=O [Cl H CF3 H]
pKi ([1]; Table IV, read-out: Ki): 6.49 | ED100 ([3]; Table IV, i.v.): 20 to 25 mg/kg | ED50 ([3]; Table IV, i.v.): 10 mg/kg | IV peak of action ([3]; Table IV, i.v.): 15 min | % protection after 60 min. ([3]; i.v., 20 mg/kg): 62%

Structure (SMILES): O=c1[nH]c2cc(Cl)c(Cl)cc2[nH]c1=O [6,7-dichloro-1,4-dihydroquinoxaline-2,3-dione]
glycine site antagonism or affinity (words) [4]: competitive antagonist specific to the strychnine-insensitive [^3 H] glycine binding sites | glycine site antagonism or affinity (words) ([4]; listed as drawing 6): competitively displaced the strychnine-insensitive binding of [^3 H]glycine, without affecting the other binding sites on the NMDA receptor complex

Structure (SMILES): O=c1[nH]c2ccc(C(F)(F)F)cc2[nH]c1=O [CF3, reference compound]
pKi ([1]; Table I, read-out: Ki): 6.44

Structure (SMILES): COc1c(F)cc2[nH]c(=O)c(=O)[nH]c2c1[N+](=O)[O-] [NO2 OMe F H, 7-Fluoro-6-methoxy-5-nitro-1,4-dihydroquinoxaline-2,3-dione]
pKi [2]: 6.49 | pKi [1]: 6.49 | ED50 (MES) ([3]; Table III, i.v. injection): 7.5 mg/kg

Structure (SMILES): N#Cc1ccc2nc(O)c(O)nc2c1 [CN, reference compound]
pKi ([1]; Table I, read-out: Ki): 5.31

Structure (SMILES): N#Cc1c(Cl)c([N+](=O)[O-])cc2[nH]c(=O)c(=O)[nH]c12 [CN Cl NO2 H, 6-Chloro-5-cyano-7-nitro-1,4-dihydroquinoxaline-2,3-dione]
pKi [2]: 7.30

Structure (SMILES): Oc1nc2cc(F)c(Cl)c(F)c2nc1O [F Cl F H, 6-Chloro-5,7-difluoro-1,4-dihydroquinoxaline-2,3-dione]
pKi [1]: 6.00 | ED50 ([3]; iv, Table III, i.v. injection): 10 mg/kg

Structure (SMILES): Cc1cc2[nH]c(=O)c(=O)[nH]c2c([N+](=O)[O-])c1Cl [NO2 Cl Me H, 6-Chloro-7-methyl-5-nitro-1,4-dihydroquinoxaline-2,3-dione]
pKi [2]: 7.57 | pKi [1]: 7.57 | ED50 as an anticonvulsant in the MES experiment in mice [3]: 2 mg/kg

Second part, led by results:

pKi ([1]; Table I, read-out: Ki): 5.86
Structure (SMILES): O=[N+]([O-])c1ccc2nc(O)c(O)nc2c1 [NO2, reference compound]

pKi ([1]; Table III, read-out: Ki): 5.53
Structure (SMILES): O=c1[nH]c2cc(F)c(F)c(F)c2[nH]c1=O [F F F H, 5,6,7-Trifluoro-1,4-dihydro-2,3-quinoxalinedione]
ED50 ([3]; iv, Table III, i.v. injection): 4 to 5 mg/kg | ED100 ([3]; Table IV, i.v.): 15 to 20 mg/kg | ED50 (MES) ([3]; Table IV, i.v.): 4 to 5 mg/kg | IV peak of action ([3]; Table IV, i.v.): 2 min | % protection after 60 min. ([3]; i.v., 10 mg/kg): 0% | protection against MES after 60 min. ([3]; i.v., after 60 min): no more protection was observed

pKi [2]: 5.92
Structure (SMILES): Cc1cc([N+](=O)[O-])c2[nH]c(=O)c(=O)[nH]c2c1 [NO2 H Me H, 7-Methyl-5-nitro-1,4-dihydro-2,3-quinoxalinedione]

pKi [2]: 4.96
Structure (SMILES): O=c1[nH]c2cc3ccccc3cc2[nH]c1=O [H CH=CHCH=CH H, 1,4-dihydrobenzo[g]quinoxaline-2,3-dione]

pKi [2]: 6.55 | pKi ([1]; Table III, read-out: Ki): 6.55
Structure (SMILES): [N-]=[N+]=Nc1c(F)cc2[nH]c(=O)c(=O)[nH]c2c1[N+](=O)[O-] [NO2 N3 F H, 6-Azido-7-fluoro-5-nitro-1,4-dihydroquinoxaline-2,3-dione]
ED50 ([3]; iv, Table III, i.v. injection): 7.5 mg/kg

pKi [2]: 5.20
Structure (SMILES): O=c1[nH]c2cc3c(cc2[nH]c1=O)CCC3 [H CH2 CH2 CH2 H, Cyclopento[g]-1,4-dihydroquinoxaline-2,3-dione]

pKi ([1]; Table III, read-out: Ki): 7.15
Structure (SMILES): O=c1[nH]c2cc(Cl)c(F)c([N+](=O)[O-])c2[nH]c1=O [NO2 F Cl H, 7-Chloro-6-fluoro-5-nitro-1,4-dihydroquinoxaline-2,3-dione]
ED50 ([3]; iv, Table III, i.v. injection): 0.9 mg/kg

pKi [2]: 7.15
Structure (SMILES): [N-]=[N+]=Nc1c(Cl)c(Cl)cc2[nH]c(=O)c(=O)[nH]c12 [N3 Cl Cl H, 5-Azido-6,7-dichloro-1,4-dihydroquinoxaline-2,3-dione]

pKi ([1]; Table IV, read-out: Ki): 7.02
Structure (SMILES): O=c1[nH]c2cc(C(F)(F)F)cc([N+](=O)[O-])c2[nH]c1=O [NO2 H CF3 H, 7-trifluoromethyl-5-nitro-1,4-dihydroquinoxaline-2,3-dione]
ED100 ([3]; Table IV, i.v.): 40 mg/kg | ED50 ([3]; Table IV, i.v.): 17 mg/kg | IV peak of action ([3]; Table IV, i.v.): 30 min | % protection after 60 min. ([3]; i.v., 40 mg/kg): 62%

pKi ([1]; Table III, read-out: Ki): 5.09
Structure (SMILES): O=c1[nH]c2cc(F)c(F)cc2[nH]c1=O [H F F H, 6,7-Difluoro-1,4-dihydro-2,3-quinoxalinedione]
ED50 ([3]; iv, Table III, i.v. injection): 15 mg/kg

pKi [2]: 6.00
Structure (SMILES): CCOc1c(F)cc2[nH]c(=O)c(=O)[nH]c2c1[N+](=O)[O-] [NO2 OEt F H, 7-Fluoro-6-ethoxy-5-nitro-1,4dihydroquinoxaline-2,3-dione]

pKi [2]: 6.05
Structure (SMILES): CCc1cc(Br)cc2[nH]c(=O)c(=O)[nH]c12 [Et H Br H, 7-Bromo-5-ethyl-1,4-dihydroquinoxaline-2,3-dione]

pKi [2]: 6.10
Structure (SMILES): O=c1[nH]c2cc3c(c([N+](=O)[O-])c2[nH]c1=O)CCC3 [NO2 CH2 CH2 CH2 H, 5-Nitrocyclopento[g]-1,4-dihydroquinoxaline-2,3-dione]

pKi ([1]; Table I, read-out: Ki): 5.61
Structure (SMILES): Oc1nc2ccccc2nc1O [H, reference compound]

pKi ([1]; Table III, read-out: Ki): 6.74
Structure (SMILES): O=c1[nH]c2cc(F)c(Cl)c([N+](=O)[O-])c2[nH]c1=O [NO2 Cl F H, 6-Chloro-1,4-dihydro-7-fluoro-5-nitroquinoxaline-2,3-dione]
ED50 ([3]; iv, Table III, i.v. injection): 4 to 5 mg/kg

pKi ([1]; Table III, read-out: Ki): 7.37
Structure (SMILES): O=c1[nH]c2cc(F)c(Br)c([N+](=O)[O-])c2[nH]c1=O [NO2 Br F H, 6-Bromo-7-Fluoro-5-nitro-1,4-dihydroquinoxaline-2,3-dione]
ED50 ([3]; iv, Table III, i.v. injection): 3.5 mg/kg

pKi [2]: 6.01
Structure (SMILES): Cc1cc2[nH]c(=O)c(=O)[nH]c2cc1C [H Me Me H, 6,7-Dimethyl-1,4-dihydroquinoxaline-2,3-dione]

pKi [2]: 6.30
Structure (SMILES): CCSc1c(Cl)cc2[nH]c(=O)c(=O)[nH]c2c1[N+](=O)[O-] [NO2 SEt Cl H, 7-Chloro-1,4-dihydro-6-ethylthio-5-nitroquinoxaline-2,3-dione]

Ki ([1]; Table I): inactive
Structure (SMILES): Nc1ccc2[nH]c(=O)c(=O)[nH]c2c1 [NH2, reference compound]

pKi ([1]; Table I, read-out: Ki): 5.54
Structure (SMILES): O=c1[nH]c2ccc(F)cc2[nH]c1=O [F, reference compound]
